Among the data in PubChem BioAssay AID258 (DTP/NCI, 2004) are T/C values, retold here.

The experiment concerns CD2F1 mice, L1210 leukemia sc, survival T/C. The experiment in a line: NCI In Vivo Anticancer Drug Screen. Data for tumor model L1210 Leukemia (subcutaneous) in CD2F1 (CDF1) mice. Particulars: endpoint: median survival time, higher = longer survival. In a few lines:
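T/C ratio: treated-group survival or tumor size over vehicle-control group measurement, in mice carrying transplanted tumors.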

[1] abbreviates: dose: 39.0 mg/kg/injection, schedule: Q01DX Z (sc), vehicle: water.
Where [2] appears, read: dose: 65.0 mg/kg/injection, schedule: Q01DX Z (sc), vehicle: water.

Structures are written as SMILES. Where “and” joins values, the source holds several entries; their conditions need not be identical. Equal entries are not always repeated. Inconclusive results and toxic doses are left out.

As for `O=C(Nc1ccc(C2=NCCN2)cc1)c1cccc(C(=O)Nc2ccc(C3=NCCN3)cc2)c1`, the T/C is, setting by setting: (dose: 2.0 mg/kg/injection, schedule: Q01DX Z (iv), vehicle: water) 100 % of control; (dose: 3.0 mg/kg/injection, schedule: Q01DX Z (sc), vehicle: methylcellulose (MC)) 100 % of control; (dose: 4.0 mg/kg/injection, schedule: Q01DX Z (iv), vehicle: water) 111 % of control; (dose: 5.0 mg/kg/injection, schedule: Q01DX Z (sc), vehicle: methylcellulose (MC)) 100 % of control; (dose: 5.0 mg/kg/injection, schedule: Q01DX Z (sc), vehicle: water) 111 % of control; (dose: 8.0 mg/kg/injection, schedule: Q01DX Z (iv), vehicle: water) 161 % of control. Moreover, the T/C is 183 % of control (dose: 8.0 mg/kg/injection, schedule: Q01DX Z (sc), vehicle: water); 111 % of control (dose: 8.4 mg/kg/injection, schedule: Q01DX Z (sc), vehicle: methylcellulose (MC)); 200 % of control (dose: 8.4 mg/kg/injection, schedule: Q01DX Z (sc), vehicle: water); 250 % of control (dose: 14.0 mg/kg/injection, schedule: Q01DX Z (sc), vehicle: water); 277 % of control (dose: 16.0 mg/kg/injection, schedule: Q01DX Z (sc), vehicle: water); 222 % of control (dose: 23.0 mg/kg/injection, schedule: Q01DX Z (sc), vehicle: methylcellulose (MC)). In addition, the T/C is 283 % of control (dose: 23.0 mg/kg/injection, schedule: Q01DX Z (sc), vehicle: water); 305 % of control (dose: 32.0 mg/kg/injection, schedule: Q01DX Z (sc), vehicle: water); 161 % of control (dose: 39.0 mg/kg/injection, schedule: Q01DX Z (sc), vehicle: methylcellulose (MC)); 266 % of control under setting [1]; 283 % of control (dose: 64.0 mg/kg/injection, schedule: Q01DX Z (sc), vehicle: water); 177 % of control (dose: 65.0 mg/kg/injection, schedule: Q01DX Z (sc), vehicle: methylcellulose (MC)). The T/C under setting [2] was 266 % of control and the T/C (dose: 128.0 mg/kg/injection, schedule: Q01DX Z (sc), vehicle: water) is 283 % of control.

As for `O=NN(CCCl)C(=O)NC1CC2CCC1C2` (centres undefined), the T/C is 94 % of control (dose: 3.75 mg/kg/injection, schedule: Q01DX Z (sc), vehicle: carboxymethylcellulose (CMC)); 94 % of control (dose: 7.5 mg/kg/injection, schedule: Q01DX Z (sc), vehicle: carboxymethylcellulose (CMC)); 117 % of control (dose: 15.0 mg/kg/injection, schedule: Q01DX Z (sc), vehicle: carboxymethylcellulose (CMC)); 288 % of control (dose: 30.0 mg/kg/injection, schedule: Q01DX Z (sc), vehicle: carboxymethylcellulose (CMC)); 200 % of control (dose: 60.0 mg/kg/injection, schedule: Q01DX Z (sc), vehicle: carboxymethylcellulose (CMC)).

Turning to `O=NN(CCCl)C(=O)NCCCl`, the T/C is 108 % of control (dose: 0.25 mg/kg/injection, schedule: Q01DX009 (ip), vehicle: saline + alcohol); 100 % of control and 107 % of control (dose: 0.25 mg/kg/injection, schedule: Q01DX009 (sc), vehicle: saline + alcohol); 121 % of control (dose: 0.5 mg/kg/injection, schedule: Q01DX009 (ip), vehicle: saline + alcohol); 112 % of control and 98 % of control (dose: 0.5 mg/kg/injection, schedule: Q01DX009 (sc), vehicle: saline + alcohol); 121 % of control (dose: 0.88 mg/kg/injection, schedule: Q01DX009 (ip), vehicle: saline + alcohol); 112 % of control (dose: 0.9 mg/kg/injection, schedule: Q01DX009 (ip), vehicle: saline + alcohol). Moreover, the T/C by setting is: (dose: 1.0 mg/kg/injection, schedule: Q01DX009 (sc), vehicle: saline + alcohol) 108 % of control and 124 % of control; (dose: 1.8 mg/kg/injection, schedule: Q01DX009 (ip), vehicle: saline + alcohol) 120 % of control; (dose: 1.8 mg/kg/injection, schedule: Q01DX Z (sc), vehicle: saline) 243 % of control; (dose: 2.0 mg/kg/injection, schedule: Q01DX009 (ip), vehicle: saline + alcohol) 159 % of control and 192 % of control; (dose: 3.0 mg/kg/injection, schedule: Q01DX Z (sc), vehicle: saline) 512 % of control; (dose: 4.0 mg/kg/injection, schedule: Q01DX009 (ip), vehicle: saline + alcohol) 187 % of control and 219 % of control. Besides, the T/C reads like this: (dose: 5.0 mg/kg/injection, schedule: Q01DX Z (sc), vehicle: saline) 300 % of control; (dose: 5.0 mg/kg/injection, schedule: Q07DX Z (sc), vehicle: saline) 150 % of control; (dose: 5.3 mg/kg/injection, schedule: Q01DX009 (sc), vehicle: saline + alcohol) 314 % of control; (dose: 5.33 mg/kg/injection, schedule: Q01DX009 (ip), vehicle: saline + alcohol) 222 % of control; (dose: 5.33 mg/kg/injection, schedule: Q01DX009 (sc), vehicle: saline + alcohol) 203 % of control; (dose: 7.0 mg/kg/injection, schedule: Q01DX009 (ip), vehicle: saline + alcohol) 167 % of control and 184 % of control. The T/C by setting is: (dose: 8.0 mg/kg/injection, schedule: Q01DX009 (ip), vehicle: saline + alcohol) 179 % of control and 243 % of control; (dose: 8.4 mg/kg/injection, schedule: Q01DX001 (sc), vehicle: saline) 212 % of control; (dose: 8.4 mg/kg/injection, schedule: Q01DX017 (ip), vehicle: none) 333 % of control; (dose: 8.4 mg/kg/injection, schedule: Q01DX017 (sc), vehicle: saline) 316 % of control; (dose: 8.4 mg/kg/injection, schedule: Q01DX Z (sc), vehicle: saline) 256 % of control; (dose: 8.4 mg/kg/injection, schedule: Q07DX Z (sc), vehicle: saline) 293 % of control. Also, the T/C (dose: 12.0 mg/kg/injection, schedule: Q01DX009 (sc), vehicle: saline + alcohol) is 151 % of control and 205 % of control; the T/C (dose: 14.0 mg/kg/injection, schedule: Q01DX001 (sc), vehicle: saline) was 300 % of control; the T/C (dose: 14.0 mg/kg/injection, schedule: Q01DX009 (ip), vehicle: saline + alcohol) was 116 % of control; the T/C (dose: 14.0 mg/kg/injection, schedule: Q01DX017 (ip), vehicle: none) is 588 % of control; the T/C (dose: 14.0 mg/kg/injection, schedule: Q01DX017 (sc), vehicle: saline) is 388 % of control; the T/C (dose: 14.0 mg/kg/injection, schedule: Q01DX Z (sc), vehicle: saline) was 212 % of control. The T/C is 600 % of control (dose: 14.0 mg/kg/injection, schedule: Q07DX Z (sc), vehicle: saline); 160 % of control (dose: 16.0 mg/kg/injection, schedule: Q01DX009 (sc), vehicle: saline + alcohol); 343 % of control (dose: 23.0 mg/kg/injection, schedule: Q01DX001 (sc), vehicle: saline); 731 % of control (dose: 23.0 mg/kg/injection, schedule: Q01DX017 (ip), vehicle: none); 733 % of control (dose: 23.0 mg/kg/injection, schedule: Q01DX017 (sc), vehicle: saline); 331 % of control (dose: 23.0 mg/kg/injection, schedule: Q07DX Z (sc), vehicle: saline). Further, the T/C was 98 % of control (dose: 32.0 mg/kg/injection, schedule: Q01DX009 (ip), vehicle: saline + alcohol); 102 % of control and 124 % of control (dose: 32.0 mg/kg/injection, schedule: Q01DX009 (sc), vehicle: saline + alcohol); 243 % of control (dose: 39.0 mg/kg/injection, schedule: Q01DX001 (sc), vehicle: saline); 511 % of control (dose: 39.0 mg/kg/injection, schedule: Q01DX017 (ip), vehicle: none); 500 % of control (dose: 39.0 mg/kg/injection, schedule: Q01DX017 (sc), vehicle: saline); 200 % of control (dose: 39.0 mg/kg/injection, schedule: Q07DX Z (sc), vehicle: saline). For the same molecule, the T/C (dose: 65.0 mg/kg/injection, schedule: Q01DX001 (sc), vehicle: saline) was 162 % of control.

Consider `CCN(CC)c1ccc(/C=C/c2ccnc3ccccc23)cc1`, for which the T/C is, setting by setting: under setting [1], 100 % of control; under setting [2], 100 % of control; (dose: 108.0 mg/kg/injection, schedule: Q01DX Z (sc), vehicle: water) 100 % of control; (dose: 180.0 mg/kg/injection, schedule: Q01DX Z (sc), vehicle: water) 100 % of control; (dose: 300.0 mg/kg/injection, schedule: Q01DX Z (sc), vehicle: water) 100 % of control; (dose: 500.0 mg/kg/injection, schedule: Q01DX Z (sc), vehicle: water) 100 % of control.
